Measurements taken from patent US20190290726A1, “PROTEIN POLYMER FUSIONS FOR SUBCUTANEOUS DELIVERY OF SMALL MOLECULES” (University of Southern California, priority 2016, published 2019).
Values after ≈ are worked out from the molar mass of the structure shown. “Also recorded” adds a separate entry of the source.

Tests used:
[1] = system: MDA-MB-468 breast cancer xenograft; assay: In vivo tumor regression study, subcutaneous administration; conditions: 0.75 mg/kg
Description: Since there was no statistical difference in efficacy observed between FSI-Rapa and FAF-Rapa intravenously, Applicants next employed SC route of administration in the same MDA-MB-468 xenograft mouse model (FIGS. 5A-5H). The rationale behind exploring SC route was to distinguish the uptake and bio distribution of different FKBP-ELPs from the site of injection into the systemic circulation. […] SC route further presents a convenient administration method compared to IV route with more clinical relevance and has been FDA approved for monoclonal antibodies and biotherapeutics.
The comparative tumor regression study consisted of 5 groups: PBS, Free Rapa, FAF-Rapa, FA-Rapa, and FSI-Rapa at the same maximum tolerated dose of 0.75 mg/kg (n=6-8/group). All treatments were done subcutaneously in the right flank above the hind leg. […] Because of the toxic side effects, mice were thereafter treated with free Rapa in DMSO:EtOH:Cremophore-EL:PBS formulation in 1:1:2:6% v/v ratio. […] However, the mice gradually gained back the lost BW which enabled us to continue the treatment with the Cremophore formulation. To prevent further local discomfort to mice, a different site of injection was chosen each time spanning the entire flank region for free Rapa injections. […] There was no local bruising or scabs observed with any of the FKBP-ELP-Rapa formulations which made the treatment easier and at the same site of injection throughout the study.
All animal experiments were conducted as per the guidelines of the American Association of Laboratory Animal Care under an USC approved protocol. MDA-MB-468 cells (American Type Tissue Culture Collection) were cultured at 37° C. with 5% CO2 in Dulbecco's modified Eagle's medium (DMEM)/Ham's F-12 media (Caisson) supplemented with 10% fetal bovine serum. The cells were sent for screening against all major mouse pathogens and human blood borne pathogens (Charles River) prior to implantation. A single injection of MDA-MB-468 cells (1-2×10^6 cells in 100 μL fetal bovine serum free DMEM media) was implanted into the left mammary fat pad of 7-8 weeks old female nude (nu/nu) athymic mice (Harlan, Inc.) Tumors were allowed to grow to a size of ˜50-100 mm^3 and mice were randomized blindly into respective groups before start of treatment. […] BW and tumor size were measured thrice a week on the same day of injections. Tumor size was measured using Vernier calipers and tumor volume was calculated using the following equation:
where a and b represents smaller and bigger length respectively. […] Tumor burden was calculated by determining the trapezoidal area under the growth curve for each mouse by using the following equation: […]

[2] = cited from earlier work

With CO[C@H]1C[C@@H]2CC[C@@H](C)[C@@](O)(O2)C(=O)C(=O)N2CCCC[C@H]2C(=O)O[C@H]([C@H](C)C[C@@H]2CC[C@@H](O)[C@H](OC)C2)CC(=O)[C@H](C)/C=C(\C)[C@@H](O)[C@@H](OC)C(=O)[C@H](C)C[C@H](C)/C=C/C=C/C=C/1C [Free Rapa, (3S,6R,7E,9R,10R,12R,14S,15E,17E,19E,21S,23S,26R,27R,34aS)-9,10,12,13,14,21,22,23,24,25,26,27,32,33,34,34a-hexadecahydro-9,27-dihydroxy-3-[(1R)-2-[(1S,3R,4R)-4-hydroxy-3-methoxycyclohexyl]-1-methylethyl]-10,21-dimethoxy-6,8,12,14,20,26-hexamethyl-23,27-epoxy-3H-pyrido[2,1-c][1,4]-oxaazacyclohentriacontine-1,5,11,28,29(4H,6H,31H)-pentone] the “tumor burden compared to PBS group” value ([1]; SC, Tukey post hoc, last day of treatment (day 50)) was “statistically significance compared to PBS group; also recorded: significantly lower compared to PBS”, the Kaplan-Meier survival analysis ([1]; SC, endpoint 4 times increase in tumor volume) was “better anti-tumor efficacy than other groups” and the “drop in BW” value ([1]; mouse, in vivo, sc) was 10%. For the same compound, the “toxicity, local toxicity at the site of injection” value ([1]; mouse, in vivo, sc) was “considerable local toxicity at site of subcutaneous injection” and the aqueous solubility [2] was roughly 10 µM (≈ 9.14 µg/mL).
